According to patent US9090897B2, “Production of IFN-lambda by conventional dendritic cells” (Bavarian Nordic A/S, priority 2009, dated 2015):

Tests used:
[1] = system: total non parenchymal liver cells; experiment: In vitro stimulation of total non parenchymal liver cells, IFN-λ and IL-12p70; type: cell-based, mouse; conditions: liver cells from WT mice, 2.5×10^6/ml, IL-3+IL-4+IFN-γ+GM-CSF, 18 h
Description: FIGS. 3A and B depict that FL is involved in the production of IFN-λ in vivo. (A) Isolated total non parenchymal liver cells 2.5×10^6/ml were stimulated in the presence of IL-3+IL-4+IFN-γ+GM-CSF with the stimuli as indicated. After 18 h supernatants were analyzed for IFN-λ and IL-12p70. Representative results of 3 experiments are shown. Data represent mean+/−SD of duplicate samples. (B) WT and FL-KO mice were injected i.v. with 100 μg poly IC. After 3-4 h sera were analyzed for IFN-λ and IFN-α. Circles indicate the results of individual mice and columns represent the mean thereof.
Cells were stimulated in vitro with single TLR agonists or combinations thereof containing 10 μg/ml Pam3Cys (InvivoGen), 100 μg/ml poly IC (Axxora), 10 μg/ml LPS (E. coli; Sigma-Aldrich or Axxora), 10 μg/ml R848 (Axxora), 1 μM CpG-1668 or CpG-2216 (TIB-Molbiol), 1 μg/ml profilin of toxoplasma (Axxora). The recombinant cytokines mouse-IL-3, mouse-IL-4, rat-IFN-γ (PeproTech) and mouse-GM-CSF (Tebu-Bio) (10 ng/ml each) were added as indicated. […] IFN-λ in supernatants was analyzed by ELISA and IL-12p70 was determined by FlowCytomix bead assay (Bender Medsystems) according to manufacturer's protocol. […]

splenocytes = experiment: Spleen cell fractions separated after in vivo injection, cultured 18 h, IFN-λ in supernatant; set-up: species or system mouse; conditions: spleens 1.5-2 h after i.v. injection, magnetic bead separation, 18 h culture
Description: 1.5-2 h after i.v. injection of poly IC spleens were harvested and processed. Cell free supernatants were analyzed for IFN-λ after in vitro culture for 18 h. (A) 5×10^6 cells/ml total spleen cells or cells separated by density centrifugation into light density cells or heavy density cells. (B) total spleen cells 25×10^6 cells/ml of WT or CD11c-DTR-tg mice treated 2 days before with diphtheria toxin (DT). (C) Total spleen cells before separation or after magnetic bead separation into the denoted populations. The initial cell number of splenocytes added onto the column was 20×10^6. Without further counting each fraction was distributed into 2 wells with 200 μl medium/well. Bars represent the mean±SD of 2 independent experiments (A+C) or 1 experiment (B) using 2 mice per experiment.
Spleen cells 1.5 h after in vivo injection with DISC HSV-1 were separated with anti-CD45R and magnetic beads into positive and negative fractions. The CD45R negative fraction was further separated into cells positive or negative for CD8α. Separated cells were cultured in vitro for the next 18 h and cell-free supernatants were analyzed for IFN-λ.^˜ Bars represent the mean±SD of 2 independent experiments using one mouse per experiment.

Which IFN-λ production [1] does the source give for “Polyinosinic:polycytidylic acid [poly IC]” here?
Its IFN-λ production is “produced IFN-λ”.

And the “splenocyte fraction with which IFN-λ production separates” value (splenocytes)?
The value was “separates with CD45R−/CD11c+/CD8α+ splenocytes”.
